Data on 6 compounds can be found in DBAASP.

Molecules are shown by their SMILES. Values after ≈ are worked out from the molar mass of the structure shown. Values joined by “and” are separate entries in the source; they are usually repeats but may differ in a detail not shown here. Identical values can stand only once.

Some test systems named below: Escherichia coli BL21; Vibrio cholerae; Candida albicans; Listeria monocytogenes; Escherichia coli.
Common to all, as to assay: ≥ marks a high value that may be exact or a test limit, other limits are often not marked, values filed in µg/mL are converted to µM
For assay [1], the system named is Escherichia coli ATCC 700926.
The test system of assay [2] is Staphylococcus aureus ATCC 6538P.
For assay [3], the system named is Staphylococcus aureus ATCC 43300.
Assay [4] concerns Escherichia coli ATCC 25922.
Assay [5] deals with Pseudomonas aeruginosa ATCC 27853.
Assay [6] relates to Staphylococcus aureus USA 300.
Assay [7] concerns Staphylococcus aureus ATCC 6538.
The test system of assay [8] is Bacillus subtilis ATCC 23857.
Assay [9] has as its system Staphylococcus epidermidis ATCC 12228.
For assay [10], the system named is Pseudomonas aeruginosa ATCC 9027.
Assay [11] deals with Staphylococcus aureus USA 400.
In assay [12] the test system is Bacillus subtilis IFO 3513.
The subject of assay [13] is Micrococcus luteus ATCC 9341.
Assay [14] concerns Staphylococcus aureus IFO 12732.
For assay [15], the system named is Escherichia coli IFO 12734.
Assay [16] concerns Stenotrophomonas maltophilia B6/2.
The subject of assay [17] is Stenotrophomonas maltophilia B32/1.
Assay [18] concerns Acinetobacter baumannii NM35.
Assay [19] deals with Staphylococcus epidermidis T37/8.
Assay [20] deals with Acinetobacter baumannii NM75.
Assay [21] has as its system Staphylococcus epidermidis RP62A/1.
In assay [22] the test system is Escherichia coli ATCC 25726.
The subject of assay [23] is Candida albicans ATCC 90028.
In assay [24] the test system is Enterococcus faecalis ATCC 29212.
Assay [25] has as its system Staphylococcus aureus 145/08.
Assay [26] has as its system Staphylococcus epidermidis T6/19.
Assay [27] concerns Stenotrophomonas maltophilia B5/5.
Assay [28] concerns Stenotrophomonas maltophilia B32/4.
For assay [29], the system named is Acinetobacter baumannii NM109.
For assay [30], the system named is Stenotrophomonas maltophilia U8908.
Assay [31] concerns Acinetobacter baumannii NM124.
For assay [32], the system named is Staphylococcus aureus ATCC 25923.
The test system of assay [33] is Staphylococcus epidermidis RP62A.
In assay [34] the test system is Acinetobacter baumannii NM8.
For assay [35], the system named is Klebsiella pneumoniae ATCC 700603.
The test system of assay [36] is Staphylococcus epidermidis.
In assay [37] the test system is Salmonella enterica subsp. enterica serovar Typhi.
Assay [38] relates to Neisseria gonorrhoeae F-62.
Assay [39] relates to Neisseria gonorrhoeae FA-19.
Assay [40] deals with Pseudomonas aeruginosa 8600.
The subject of assay [41] is Lactobacillus acidophilus NCTC 1723.
For assay [42], the system named is Acinetobacter baumannii ATCC 19606.
For assay [43], the system named is Streptococcus mutans NCTC 10449.
Assay [44] relates to Candida albicans NCTC 3179.
The subject of assay [45] is Enterococcus faecalis NCTC 12697.

What is called MIC is the smallest concentration in the dilution series that meets the test's criterion for growth inhibition. High values mean a need for much substance, low ones inhibition by little substance. For `CC[C@H](C)[C@H](NC(=O)[C@H](CCCCN)NC(=O)[C@H](CCCCN)NC(=O)[C@@H](NC(=O)[C@@H](NC(=O)[C@H](CCCCN)NC(=O)[C@H](CCCCN)NC(=O)[C@@H](NC(=O)[C@@H](NC(=O)[C@H](CCCCN)NC(=O)[C@H](CCCCN)NC(=O)[C@@H](NC(=O)[C@@H](NC(=O)CN)[C@@H](C)CC)[C@@H](C)CC)[C@@H](C)CC)[C@@H](C)CC)[C@@H](C)CC)[C@@H](C)CC)C(=O)O` [GIIKKIIKKIIKKI], the MIC in assay [1] was 15.6 µM (≈ 25.5 µg/mL); in the assay on Escherichia coli BL21, 15.6 µM (≈ 25.5 µg/mL); in [2], 7.8 µM (≈ 12.8 µg/mL); in assay [3] it was 125 µM (≈ 205 µg/mL); in assay [4], 5.7 µM (≈ 9.33 µg/mL); in assay [5], 15.6 µM (≈ 25.5 µg/mL). Besides, the minimal inhibitory concentration (MIC) was ≥ 125 µM in [6]; 128 µM and 62.5 µM in [7]; 2.4 µM (≈ 3.93 µg/mL) in assay [8]; 3.9 µM (≈ 6.38 µg/mL) in [9]; 9.3 µM (≈ 15.2 µg/mL) in [10]; ≥ 125 µM in [11].
`CC[C@H](C)[C@H](N)C(=O)N[C@@H](CC(C)C)C(=O)N1CCC[C@H]1C(=O)N[C@@H](Cc1ccc(O)cc1)C(=O)N[C@@H](CCCCN)C(=O)N[C@@H](Cc1ccc(O)cc1)C(=O)N1CCC[C@H]1C(=O)N[C@@H](Cc1ccc(O)cc1)C(=O)N[C@@H](Cc1ccc(O)cc1)C(=O)N1CCC[C@H]1C(=O)N[C@@H](Cc1ccc(O)cc1)C(=O)N[C@@H](CCCN=C(N)N)C(=O)N[C@@H](CCCN=C(N)N)C(N)=O` [ILPYKYPYYPYRR]: the MIC in [12] is 14 µM (≈ 25 µg/mL); in [13], 6.3 µM (≈ 11.3 µg/mL); in assay [14], 14 µM (≈ 25 µg/mL); in assay [15] it was ≥ 55.8 µM.
In the case of `CC[C@H](C)[C@H](NC(=O)[C@H](C)NC(=O)[C@@H](NC(=O)[C@H](C)NC(=O)CNC(=O)[C@H](CCCCN)NC(=O)[C@@H](NC(=O)[C@H](C)NC(=O)CNC(=O)[C@H](CCCCN)NC(=O)[C@H](CC(C)C)NC(=O)[C@@H](NC(=O)[C@H](CCCCN)NC(=O)[C@H](CCCCN)NC(=O)[C@H](CC(C)C)NC(=O)[C@@H](NC(=O)[C@H](CC(=O)O)NC(=O)[C@H](CCCCN)NC(=O)[C@@H](NC(=O)[C@H](CCCCN)NC(=O)[C@@H]1CCCN1C(=O)[C@H](CO)NC(=O)[C@H](CC(C)C)NC(=O)[C@H](CCCCN)NC(=O)[C@@H](N)CC(C)C)[C@@H](C)O)[C@@H](C)O)C(C)C)[C@@H](C)CC)[C@@H](C)CC)C(=O)N[C@@H](C)C(=O)N[C@@H](CO)C(=O)N[C@@H](CCSC)C(=O)N[C@@H](C)C(N)=O` [LKLSPKTKDTLKKVLKGAIKGAIAIASMA], the MIC was 1.25 µM (≈ 3.74 µg/mL) in [16]; 2.5 µM (≈ 7.49 µg/mL) in assay [17]; 5 µM (≈ 15 µg/mL) in [18]; 1.25 µM (≈ 3.74 µg/mL) in assay [19]; 2.5 µM (≈ 7.49 µg/mL) in assay [20]; 1.25 µM (≈ 3.74 µg/mL) in [21]. In addition, the MIC in assay [22] is 10 µM and 5 µM; in assay [23] it was ≥ 80 µM; in assay [5], 20 µM (≈ 59.9 µg/mL); in assay [24], 20 µM (≈ 59.9 µg/mL); in [25] it was 2.5 µM (≈ 7.49 µg/mL); in assay [26] it was 1.25 µM (≈ 3.74 µg/mL). The MIC in assay [27] turned out to be 2.5 µM (≈ 7.49 µg/mL); in assay [28] it was 1.25 µM (≈ 3.74 µg/mL); in assay [29], 5 µM (≈ 15 µg/mL); in assay [30], 5 µM (≈ 15 µg/mL); in assay [31], 2.5 µM (≈ 7.49 µg/mL); in assay [32] it was 2.5 µM (≈ 7.49 µg/mL). The MIC in [33] amounted to 1.25 µM (≈ 3.74 µg/mL); in [34] it was 5 µM (≈ 15 µg/mL); in assay [35] it was 10 µM (≈ 29.9 µg/mL).
For `CC(C)C[C@H](NC(=O)[C@H](CO)NC(=O)CNC(=O)[C@H](C)NC(=O)[C@@H](N)CC(N)=O)C(=O)N[C@@H](CC(C)C)C(=O)N[C@@H](CO)C(=O)NCC(=O)N[C@@H](Cc1c[nH]c2ccccc12)C(=O)NCC(=O)O` [NAGSLLSGWG], the MIC was found to be 0.687 µM (≈ 0.66 µg/mL) in assay [36], 3 µM (≈ 2.88 µg/mL) with Vibrio cholerae and 0.687 µM (≈ 0.66 µg/mL) in [37].
Regarding `CC(C)C[C@H](NC(=O)[C@H](CCCNC(=N)N)NC(=O)CNC(=O)CNC(=O)[C@@H](N)CCCNC(=N)N)C(=O)N[C@H]1CSSC[C@@H](C(=O)N[C@H](C(=O)NCC(=O)N[C@@H](CCCNC(=N)N)C(N)=O)C(C)C)NC(=O)[C@H](C(C)C)NC(=O)[C@@H]2CSSC[C@H](NC(=O)[C@H](Cc3ccc(O)cc3)NC1=O)C(=O)N[C@@H](CCCNC(=N)N)C(=O)N1CCC[C@H]1C(=O)N[C@@H](CCCNC(=N)N)C(=O)N[C@@H](Cc1ccccc1)C(=O)N2` [RGGRLCYCRPRFCVCVGR], the MIC was 0.666 µM (≈ 1.4 µg/mL) in assay [38]; 7.42 µM (≈ 15.6 µg/mL) with Candida albicans; 1.19 µM (≈ 2.49 µg/mL) with Listeria monocytogenes; 1.38 µM (≈ 2.89 µg/mL) with Escherichia coli; 0.761 µM (≈ 1.6 µg/mL) in assay [39].
On to `CSCC[C@H](NC(=O)[C@H](CC(C)C)NC(=O)CNC(=O)[C@H](Cc1ccccc1)NC(=O)[C@H](Cc1ccccc1)NC(=O)[C@H](CCC(N)=O)NC(=O)[C@H](CCC(N)=O)NC(=O)[C@@H]1CCCN1C(=O)[C@H](CCCCN)NC(=O)[C@@H]1CCCN1C(=O)[C@@H](N)CCCN=C(N)N)C(N)=O` [RPKPQQFFGLM], for which the MIC in assay [40] is ≥ 94.9 µM; in assay [41], ≥ 54.9 µM; in assay [42] it was > 94.9 µM; in [43], ≥ 127 µM; in [44], 6.01 µM (≈ 8.09 µg/mL); in assay [45], ≥ 371 µM.
